Source: patent US7498447B2, “Therapeutic compounds” (Allergan, Inc., priority 2006, dated 2009)

Experiments:
EP2 [1] = biological target: T1, EP2 (Homo sapiens, UniProt P43116); experiment: EP2 flipr; type: cell-based
Description: (§1) U.S. patent application Ser. No. 11/553,143, filed on Oct. 26, 2006, incorporated by reference herein, describes the methods used to obtain the in vitro data in the tables below.

EP2 [2] = biological target: T1, EP2; experiment: EP2 cAMP; type: cell-based
Description: as §1

EP2 [3] = biological target: T1, EP2; experiment: EP2 binding (Ki)
Description: as §1

EP4 [4] = biological target: T2, EP4 (Homo sapiens, UniProt P35408); experiment: EP4 binding (KI)
T2 sequence (P35408 whole entry): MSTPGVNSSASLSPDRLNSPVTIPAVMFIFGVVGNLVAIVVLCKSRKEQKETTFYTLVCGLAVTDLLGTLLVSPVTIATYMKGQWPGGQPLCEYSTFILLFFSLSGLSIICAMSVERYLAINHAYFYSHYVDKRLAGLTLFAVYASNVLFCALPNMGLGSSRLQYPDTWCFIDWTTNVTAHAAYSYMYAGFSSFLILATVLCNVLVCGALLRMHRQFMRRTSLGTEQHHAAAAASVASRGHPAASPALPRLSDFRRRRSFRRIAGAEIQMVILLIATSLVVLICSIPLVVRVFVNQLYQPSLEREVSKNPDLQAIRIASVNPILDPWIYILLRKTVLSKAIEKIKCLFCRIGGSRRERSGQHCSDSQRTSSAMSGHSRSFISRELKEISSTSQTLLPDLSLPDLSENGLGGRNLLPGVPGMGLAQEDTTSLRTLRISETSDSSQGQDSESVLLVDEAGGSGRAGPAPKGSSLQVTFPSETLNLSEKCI
Description: as §1

EP4 [5] = biological target: T2, EP4; experiment: EP4 flipr; type: cell-based
Description: as §1

T1 sequence (P43116 whole entry): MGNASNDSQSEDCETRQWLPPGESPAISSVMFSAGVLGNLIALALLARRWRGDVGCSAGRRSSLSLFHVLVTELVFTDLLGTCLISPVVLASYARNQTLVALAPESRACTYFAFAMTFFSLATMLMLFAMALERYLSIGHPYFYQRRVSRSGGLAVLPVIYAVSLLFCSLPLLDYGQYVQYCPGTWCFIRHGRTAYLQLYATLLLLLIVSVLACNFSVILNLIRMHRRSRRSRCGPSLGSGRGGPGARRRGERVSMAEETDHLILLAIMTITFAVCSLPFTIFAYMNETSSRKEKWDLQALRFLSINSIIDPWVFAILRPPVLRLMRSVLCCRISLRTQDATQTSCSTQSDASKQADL

CCCCCC(O)c1ccc(N2CC[C@@H](Cl)[C@@H]2COCc2ccc(C(=O)O)s2)cc1 (stereo partly drawn) [5-((((2S,3R)-3-chloro-1-(4-(1-hydroxyhexyl)phenyl)pyrrolidin-2-yl)methoxy)methyl)thiophene-2-carboxylic acid]
EC50 (EP2 [1]): 2.18 µM | EC50 (EP2 [2]): 0.339 µM | Ki (EP2 [3]): 1.84 µM | Ki (EP4 [4]): > 10 µM

CCCC/C=C/c1ccc(N2CC[C@@H](Cl)[C@@H]2COCc2ccc(C(=O)O)s2)cc1 [5-((((2S,3R)-3-chloro-1-(4-((E)-hex-1-enyl)phenyl)pyrrolidin-2-yl)methoxy)methyl)thiophene-2-carboxylic acid]
EC50 (EP2 [1]): 8.42 µM | EC50 (EP2 [2]): 0.327 µM | Ki (EP2 [3]): 3.01 µM | EC50 (EP4 [5]): > 10 µM | Ki (EP4 [4]): 1.49 µM

CCCCCC(=O)c1ccc(N2CC[C@@H](Cl)[C@@H]2COCc2ccc(C(=O)O)s2)cc1 [5-((((2S,3R)-3-chloro-1-(4-hexanoylphenyl)pyrrolidin-2-yl)methoxy)methyl)thiophene-2-carboxylic acid]
EC50 (EP2 [1]): 3.81 µM | EC50 (EP2 [2]): 0.017 µM | Ki (EP2 [3]): 0.085 µM | EC50 (EP4 [5]): > 10 µM | Ki (EP4 [4]): 1.02 µM
